In one data set the test system is MiaPaCa-2 cells. The data set is described as follows: Cytotoxicity assay in MiaPaCa-2 (XTT, 72 h). The note with it: for IC50: XTT, read-out: Cell cytotoxicity assay IC50 in range. The data set is classed as cell-based. As for the experimental part:
MiaPaCa-2 Cells (ATCC) were seeded in 96 well plates (Costar clear flat bottom) at a density of 3000 cells/well and allowed to settle overnight. Test compounds were dissolved in dimethyl sulphoxide (DMSO-Sigma Aldrich, D2650) and incubated with MiaPaCa-2 cells for 72 h. Post 72 h, 50 μl XTT (1 mg/mL; Invitrogen, X 6493) and PMS ([…]; Sigma Aldrich, P9625) reagents were added to the cells in 100 μl of cDMEM (Sigma Aldrich-D5648)+10% FBS (Hyclone-5430088-03)+1×Pen Strep (Sigma Aldrich-P0781). After 1 hour incubation with XTT and PMS absorbance was monitored with Spectramax M3 (Molecular Device). Percentage inhibition of proliferation at 10 μM and 1 μM concentrations was calculated by considering DMSO control as 0% inhibition. IC50 values were plotted using Graph pad prism software (Graph pad Inc, La Jola, Calif., USA).
A general note: Tetrazolium assays rely on reduction of a dye to a coloured formazan, in cell work by metabolically active cells.

For data set [1], the target named is T1, recombinant NAMPT wild type protein (Homo sapiens, UniProt P43490).
T1 construct: made in house; host or cells: E. coli
The experiment in a line: NAMPT fluorescence assay. Type of data set: biochemical. The conditions noted are these: 50 ng NAMPT, 2 μM Nam, 10 point dose response; read-out: Fluorescence assay IC50 in range. As for the experimental part:
The enzymatic assay was standardized using in-house recombinant NAMPT wild type protein from E. coli expression & NAM (Cat #47865-U) as a substrate. The product NMN formed after enzymatic reaction was derivatized to a fluorescent derivative through sequentially reacting with acetophenone/KOH and formic acid. The derivatized fluorescent NMN derivative was detected at 382 nm excitation wavelength and a 445 nm emission wavelength. […] The fluorescence was measured (Excitation at 382 nm & Emission at 445 nm) using Victor^3 V fluorimeter. The data is calculated using the RFU values. The final concentration of DMSO was 2% in the assay. Each individual IC50 was determined using 10 point dose response curve generated by GraphPad Prism software Version 4 (San Diego, Calif., USA) using nonlinear regression curve fit for sigmoidal dose response (variable slope).

T1 sequence (P43490 whole entry): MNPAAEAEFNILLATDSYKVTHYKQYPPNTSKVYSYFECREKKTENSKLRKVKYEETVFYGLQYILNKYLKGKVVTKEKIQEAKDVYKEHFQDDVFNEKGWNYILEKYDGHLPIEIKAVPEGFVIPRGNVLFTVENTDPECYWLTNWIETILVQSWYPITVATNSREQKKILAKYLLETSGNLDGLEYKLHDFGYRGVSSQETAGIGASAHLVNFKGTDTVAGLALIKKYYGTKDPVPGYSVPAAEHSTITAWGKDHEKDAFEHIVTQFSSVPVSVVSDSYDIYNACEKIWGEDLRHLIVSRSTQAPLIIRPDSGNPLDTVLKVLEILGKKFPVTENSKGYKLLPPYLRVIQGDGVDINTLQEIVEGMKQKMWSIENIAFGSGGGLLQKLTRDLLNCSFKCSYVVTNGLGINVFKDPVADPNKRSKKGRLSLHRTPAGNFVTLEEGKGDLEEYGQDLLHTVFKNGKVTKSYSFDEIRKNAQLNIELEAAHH

Turning to `O=C(NCC1=NOC(COc2cc(Cl)cnc2-c2cccnc2)C1)c1ccc2nccn2c1` (single isomer, unassigned) [Example 13a, N-((5-(((5-chloro-[2,3′-bipyridin]-3-yl)oxy)methyl)-4,5-dihydroisoxazol-3-yl)methyl)imidazo[1,2-a]pyridine-6-carboxamide], the “Cell cytotoxicity assay (% Inhibition at 1 μM)” value with MiaPaCa-2 cells (DMSO control = 0% inhibition) stood at 20%. Also, the inhibition at 10 µM in the data set on MiaPaCa-2 cells (Homo sapiens, MIA PaCa-2, 72 h, 10 μM, DMSO control = 0% inhibition, read-out: Cell cytotoxicity assay (% Inhibition at 10 μM)) was 93%. In addition, the IC50 in the data set with MiaPaCa-2 cells was more than 250 nM; in data set [1], more than 25 nM.

As for `O=C(NCC1=NOC(COc2cc(Cl)cnc2-c2cccnc2)C1)c1ccc2nccn2c1` (single isomer, unassigned) [Example 13b, N-((5-(((5-chloro-[2,3′-bipyridin]-3-yl)oxy)methyl)-4,5-dihydroisoxazol-3-yl)methyl)imidazo[1,2-a]pyridine-6-carboxamide], in the data set on MiaPaCa-2 cells (DMSO control = 0% inhibition), the “Cell cytotoxicity assay (% Inhibition at 1 μM)” value stood at 100%. For the same molecule, the “Cell cytotoxicity assay (% Inhibition at 10 μM)” value in the data set with MiaPaCa-2 cells (10 μM, DMSO control = 0% inhibition) was determined as 100%. Besides, the IC50 is less than 50 nM in the data set with MiaPaCa-2 cells and 10 to 25 nM in data set [1].

As a reminder, the inhibition is how much of the control response was suppressed. By IC50 is commonly meant the midpoint of a concentration-inhibition curve.

The values above are taken from patent publication US20170204092A1, “4,5-DIHYDROISOXAZOLE DERIVATIVES AS NAMPT INHIBITORS” (AURIGENE DISCOVERY TECHNOLOGIES LIMITED, priority 2014, published 2017).
